Test results taken from ChEMBL document CHEMBL1129676, “1-substituted 4-aryl-5-pyridinylimidazoles: a new class of cytokine suppressive drugs with low 5-lipoxygenase and cyclooxygenase inhibitory potency” (J Med Chem, 1996).

Tests used:
[1] = molecular target: MAP kinase p38 (Homo sapiens, UniProt O15264+Q15759+Q16539+P53778); experiment: In vitro inhibitory concentration against radioligand [3H]SB-202190 binding to CSBP kinase in human monocytic cell line, THP-1
[2] = system: Mus musculus; experiment: In vivo inhibition of LPS-induced TNF production in mice 50 mg/Kg.; type: functional
[3] = molecular target: T1, Polyunsaturated fatty acid 5-lipoxygenase (Rattus norvegicus, UniProt P12527); experiment: Inhibitory concentration against 5-lipoxygenase in rat RBL-1 cells; type: cell-based
T1 sequence (P12527 whole entry): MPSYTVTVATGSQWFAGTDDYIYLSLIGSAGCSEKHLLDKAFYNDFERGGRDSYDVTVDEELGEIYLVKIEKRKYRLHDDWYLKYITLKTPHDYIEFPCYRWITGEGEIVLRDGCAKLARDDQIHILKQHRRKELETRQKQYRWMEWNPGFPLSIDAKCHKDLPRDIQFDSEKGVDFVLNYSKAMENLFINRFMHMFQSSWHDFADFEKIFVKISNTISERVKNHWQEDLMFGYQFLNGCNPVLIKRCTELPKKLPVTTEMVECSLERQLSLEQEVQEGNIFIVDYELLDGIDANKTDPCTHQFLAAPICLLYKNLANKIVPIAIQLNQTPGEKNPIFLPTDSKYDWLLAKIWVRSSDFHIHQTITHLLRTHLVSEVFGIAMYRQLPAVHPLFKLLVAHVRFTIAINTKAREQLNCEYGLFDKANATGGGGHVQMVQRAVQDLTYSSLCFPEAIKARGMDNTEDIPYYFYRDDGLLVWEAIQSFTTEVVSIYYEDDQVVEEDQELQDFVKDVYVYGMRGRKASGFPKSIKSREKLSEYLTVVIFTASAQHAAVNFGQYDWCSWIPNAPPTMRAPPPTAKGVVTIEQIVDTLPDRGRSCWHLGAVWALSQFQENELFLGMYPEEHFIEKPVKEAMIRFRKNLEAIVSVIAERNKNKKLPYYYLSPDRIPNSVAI

[4] = molecular target: T2, Prostaglandin G/H synthase 1 (Ovis aries, UniProt P05979); experiment: Inhibitory concentration against Prostaglandin H2 synthase 1 (PGHS-1) from ram seminal vesicle
T2 sequence (P05979 whole entry): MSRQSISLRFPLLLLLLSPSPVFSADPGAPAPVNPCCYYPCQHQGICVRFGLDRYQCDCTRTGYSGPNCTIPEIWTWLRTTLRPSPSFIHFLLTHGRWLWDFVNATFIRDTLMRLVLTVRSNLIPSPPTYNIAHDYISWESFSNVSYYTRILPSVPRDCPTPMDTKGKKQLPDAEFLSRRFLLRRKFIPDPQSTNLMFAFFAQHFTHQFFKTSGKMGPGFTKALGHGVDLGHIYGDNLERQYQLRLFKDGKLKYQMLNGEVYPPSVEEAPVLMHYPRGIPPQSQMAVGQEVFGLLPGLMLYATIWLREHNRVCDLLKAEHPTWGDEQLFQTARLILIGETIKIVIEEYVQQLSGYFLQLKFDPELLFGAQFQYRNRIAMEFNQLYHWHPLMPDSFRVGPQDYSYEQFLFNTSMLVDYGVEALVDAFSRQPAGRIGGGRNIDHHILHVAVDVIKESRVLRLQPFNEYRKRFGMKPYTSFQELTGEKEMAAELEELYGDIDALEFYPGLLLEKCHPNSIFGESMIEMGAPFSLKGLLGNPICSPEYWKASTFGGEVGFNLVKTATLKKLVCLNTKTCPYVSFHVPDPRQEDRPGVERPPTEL

Structure (SMILES) | IC50 [1] [µM] | Change [2] [%] | IC50 [3] [µM] | IC50 [4] [µM]
Fc1ccc(-c2ncn(CCCN3CCOCC3)c2-c2ccnc(Cl)c2)cc1 | 1.89 |  |  | 
CSc1ccccc1-n1cnc(-c2ccc(F)cc2)c1-c1ccncc1 | 0.08 | 29 |  | 
FC(F)(F)c1cc(-c2ncn(CCCN3CCOCC3)c2-c2ccncc2)cc(C(F)(F)F)c1 | 114 |  |  | 
CSc1cccc(-c2ncn(CCCN3CCOCC3)c2-c2ccncc2)c1 | 0.29 | -10 |  | 
C[S+]([O-])c1ccc(-c2nc(-c3ccc(F)cc3)c(-c3ccncc3)[nH]2)cc1 (stereo not drawn) [SB-203580] |  | -83 |  | 
Cc1cc(-c2c(-c3ccc(F)cc3)ncn2CCCN2CCOCC2)ccn1 | 3.05 | -37 |  | 
O=C(O)CCCn1cnc(-c2ccc(F)cc2)c1-c1ccncc1 | 3.83 | -47 |  | 
CSc1ccc(-c2nc3n(c2-c2ccncc2)CCC3)cc1 |  |  | 3 | 100
C[S+]([O-])c1cccc(-c2ncn(CCCN3CCOCC3)c2-c2ccncc2)c1 (stereo not drawn) | 4.95 |  |  | 
Fc1ccc(-c2nc3n(c2-c2ccncc2)CCS3)cc1 |  |  | 10 | 5.4
C[S+]([O-])c1ccccc1-n1cnc(-c2ccc(F)cc2)c1-c1ccncc1 (stereo not drawn) | 0.71 | 40 |  | 
FC(F)(F)c1ccc(-c2ncn(CCCN3CCOCC3)c2-c2ccncc2)cc1 | 2.98 |  |  | 
Fc1ccc(-c2ncn(CCCN3CCCC3)c2-c2ccncc2)cc1 | 0.34 | -17 |  | 
[O-][S+](CCCn1cnc(-c2ccc(F)cc2)c1-c1ccncc1)c1ccccc1 (stereo not drawn) | 0.63 |  |  | 
FC(F)(F)c1cccc(-c2ncn(CCCN3CCOCC3)c2-c2ccncc2)c1 | 0.46 |  |  | 
Fc1ccc(-c2ncn(CCCSc3ccccc3)c2-c2ccncc2)cc1 | 0.08 | -42 |  | 
Clc1ccc(-c2ncn(CCCN3CCOCC3)c2-c2ccncc2)cc1Cl | 0.32 | -73 | > 100 | > 100
Fc1ccc(-c2ncn(CCCN3CCOCC3)c2-c2cccnc2)cc1 | 64.7 |  |  | 
Cc1cc(-c2[nH]c(-c3ccc([S+](C)[O-])cc3)nc2-c2cccc(F)c2)ccn1 (stereo not drawn) | 0.37 | -64 |  | 
CC(C)n1cnc(-c2ccc(F)cc2)c1-c1ccncc1 | 0.12 | -56 |  | 
Fc1ccc(-c2ncn(CCCOc3ccccc3)c2-c2ccncc2)cc1 | 0.07 | -14 |  | 
Fc1ccc(-c2ncn(C3CC3)c2-c2ccncc2)cc1 | 0.08 | -79 | 60 | 16
CSCCCn1cnc(-c2ccc(F)cc2)c1-c1ccncc1 | 0.19 | -49 |  | 
Fc1ccc(-c2ncn(CCN3CCOCC3)c2-c2ccncc2)cc1 | 0.76 | -25 |  | 

Structure (SMILES) | IC50 [1] [µM] | Change [2] [%] | IC50 [3] [µM] | IC50 [4] [µM]
Fc1ccc(-c2nc[nH]c2-c2ccncc2)cc1 | 0.21 | -82 | > 100 | > 100
C[S+]([O-])c1cccc(-n2cnc(-c3ccc(F)cc3)c2-c2ccncc2)c1 (stereo not drawn) | 0.52 | -20 |  | 
Fc1ccc(-c2ncn(CCCN3CCOCC3)c2-c2ccccn2)cc1 | 6.46 |  |  | 
NCCCn1cnc(-c2ccc(F)cc2)c1-c1ccncc1 | 0.15 |  |  | 
Nc1cc(-c2c(-c3ccc(F)cc3)ncn2CCCN2CCOCC2)ccn1 | 1.18 | -38 |  | 
CS(=O)(=O)CCCn1cnc(-c2ccc(F)cc2)c1-c1ccncc1 | 0.51 |  |  | 
Fc1ccc(-c2ncn(CCCCN3CCOCC3)c2-c2ccncc2)cc1 | 0.48 | -40 |  | 
Fc1ccc(-c2ncn(CCCNCc3ccccc3)c2-c2ccncc2)cc1 | 0.07 | -43 |  | 
Cc1cc(-c2c(-c3ccc(F)cc3)ncn2CCCN2CCOCC2)cc(C)n1 | 25 |  |  | 
Fc1ccc(-c2ncn(CCCN3CCCCC3)c2-c2ccncc2)cc1 | 1.17 | -26 |  | 
CN(CCCn1cnc(-c2ccc(F)cc2)c1-c1ccncc1)Cc1ccccc1 | 0.13 | -28 |  | 
C[S+]([O-])CCCn1cnc(-c2ccc(F)cc2)c1-c1ccncc1 (stereo not drawn) | 1.4 | -43 |  | 
O=S(=O)(CCCn1cnc(-c2ccc(F)cc2)c1-c1ccncc1)c1ccccc1 | 1.81 | -42 |  | 
Fc1ccc(-c2ncn(CCCN3CCOCC3)c2-c2ccnc3ccccc23)cc1 | 9 | -19 |  | 
Clc1cccc(-c2ncn(CCCN3CCOCC3)c2-c2ccncc2)c1 | 0.21 | -49 |  | 
C[S+]([O-])c1ccc(-n2cnc(-c3ccc(F)cc3)c2-c2ccncc2)cc1 (stereo not drawn) | 0.75 |  |  | 
COC(=O)CCCn1cnc(-c2ccc(F)cc2)c1-c1ccncc1 | 0.29 | -33 |  | 
CSc1cccc(-n2cnc(-c3ccc(F)cc3)c2-c2ccncc2)c1 | 0.12 | -23 |  | 
CCN(CC)CCCn1cnc(-c2ccc(F)cc2)c1-c1ccncc1 | 0.27 | -21 |  | 
CSc1ccc(-n2cnc(-c3ccc(F)cc3)c2-c2ccncc2)cc1 | 1.47 | -20 |  | 
Fc1ccc(-c2ncn(CCCN3CCOCC3)c2-c2ccncc2)cc1 [SB-210313] |  | -55 | > 100 | 
CCOCCCn1cnc(-c2ccc(F)cc2)c1-c1ccncc1 | 0.1 | -29 |  | 
CC(C)(C)n1cnc(-c2ccc(F)cc2)c1-c1ccncc1 | 4.74 | -35 |  | 
CSc1ccc(-c2nc(-c3cccc(F)c3)c(-c3ccncc3)[nH]2)cc1 | 0.34 |  |  | 
